Tests used:
[1] = test system: epidermal wounds; assay: Effect of bacitracin zinc impregnated foam dressing on epidermal wound healing (Example I); assay type: in vivo, white Yorkshire pigs; conditions: for HT50 (time in days for 50% of wounds to be completely healed): probit analysis
From the text: (§1) To test the effect of bacitracin zinc on epidermal resurfacing, approximately 60 rectangular wounds measuring 7 mm wide, 10 mm long, and 0.5 mm deep were made in each of eighteen white Yorkshire pigs in the paravertebral and thoracic areas with a Castroviejo keratome. The electrokeratome was fitted with a razor blade modified so that the cutting edge was reduced to 7 mm. The wounds were separated from one another by at least 15 mm of normal skin.
On each of the experimental animals, approximately one third of the wounds were assigned to one of three treatment groups: (1) control (no treatment), (2) vehicle alone, (low melting point petrolatum 3.0 g) or (3) bacitracin zinc (either 1%, 2.5%, 5%, 7%, 10% or 20% in 3.0 g). A total of 99 wounds on 3 pigs were treated with each of the varying bacitracin zinc combinations. Vehicle was applied to 594 wounds in 18 animals. The other 594 wounds were the untreated controls.
(§2) The bacitracin zinc was applied in impregnated foam shortly (within 5 minutes) after wounding on day 0 and once daily thereafter for 7 days. In order to rule out the possibility that wounds made in different anatomical regions heal at different rates the regions used for each treatment group varied for each animal.
(§3) Two days after wounding and each day thereafter some of the wounds with surrounding normal skin were excised from each treatment group. The excisions were made with a Castroviejo keratome fitted with a 22 mm blade, set to cut at a depth of 0.7 mm. After incubating the specimens in 2N sodium bromide at 37° C. for three hours, the epidermis was separated from the dermis and the epidermal sheet (22 sq mm) was assessed for re-epithelialization as previously described. Briefly, this method is a macroscopic examination of the separated epidermis for defects. Defects are visualized as holes in the separated epidermal sheet or as a lack of epidermal continuum in the area that contain the wound. The wound is considered re-epithelialized if there are no defects in the epidermis and not re-epithelialized if there are one or more defects.
The time needed for 50% of the wounds in each experimental animal to heal HT50) has been estimated from curves generated by probit analysis of the data presented in Table I. The HT50 values and the relative rate of healing are compared in Table II. Wounds treated with 7% bacitracin zinc healed 46% more rapidly than untreated wounds and 28% faster than wounds treated with the ointment alone. Vehicle treated wounds healed approximately 25% faster than wounds left open to the air.

[2] = test system: deep partial thickness wounds; assay: 7% bacitracin zinc ointment with and without polyurethane occlusion, healing of deep partial thickness wounds (Example II); assay type: in vivo, white Yorkshire pigs
From the text: as §1, §2, §3
Further tests were conducted to determine the effect of bacitracin zinc covered with an occlusive film. The wounds in these were treated according to one of four treatment regiments: (1) untreated; (2) polyurethane film; (3) 7% bacitracin zinc ointment, and (4) 7% bacitracin zinc ointment plus polyurethane film. The methodology employed was substantially the same as in Example I.

[3] = bacitracin zinc as 7% ointment, listed as BAC. ZN

Substance: bacitracin zinc
- rate of healing Compared with Untreated ([1]; 1% bacitracin zinc): +23%
- rate of healing Compared with Vehicle ([1]; 1% bacitracin zinc): 0%
- % of wounds healed ([1]; 1% bacitracin zinc in impregnated foam, day 2 after wounding): 0%
- % of wounds healed ([1]; 1% bacitracin zinc in impregnated foam, day 3 after wounding): 0%
- % of wounds healed ([1]; 1% bacitracin zinc in impregnated foam, day 4 after wounding): 40%
- % of wounds healed ([1]; 1% bacitracin zinc in impregnated foam, day 5 after wounding): 58%
- % of wounds healed ([1]; 1% bacitracin zinc in impregnated foam, day 6 after wounding): 95%
- % of wounds healed ([1]; 1% bacitracin zinc in impregnated foam, day 7 after wounding): 100%
- HT50 (time in days for 50% of wounds to be completely healed) ([1]; 1% bacitracin zinc): 4.5 days
- rate of healing Compared with Untreated ([1]; 2.5% bacitracin zinc): +25%
- rate of healing Compared with Vehicle ([1]; 2.5% bacitracin zinc): 2%
- % of wounds healed ([1]; 2.5% bacitracin zinc in impregnated foam, day 2 after wounding): 0%
- % of wounds healed ([1]; 2.5% bacitracin zinc in impregnated foam, day 3 after wounding): 0%
- % of wounds healed ([1]; 2.5% bacitracin zinc in impregnated foam, day 4 after wounding): 36%
- % of wounds healed ([1]; 2.5% bacitracin zinc in impregnated foam, day 5 after wounding): 60%
- % of wounds healed ([1]; 2.5% bacitracin zinc in impregnated foam, day 6 after wounding): 96%
- % of wounds healed ([1]; 2.5% bacitracin zinc in impregnated foam, day 7 after wounding): 100%
- HT50 (time in days for 50% of wounds to be completely healed) ([1]; 2.5% bacitracin zinc): 4.4 days
- rate of healing Compared with Untreated ([1]; 5.0% bacitracin zinc): +34%
- rate of healing Compared with Vehicle ([1]; 5.0% bacitracin zinc): 13%
- % of wounds healed ([1]; 5.0% bacitracin zinc in impregnated foam, day 2 after wounding): 0%
- % of wounds healed ([1]; 5.0% bacitracin zinc in impregnated foam, day 3 after wounding): 11%
- % of wounds healed ([1]; 5.0% bacitracin zinc in impregnated foam, day 4 after wounding): 54%
- % of wounds healed ([1]; 5.0% bacitracin zinc in impregnated foam, day 5 after wounding): 77%
- % of wounds healed ([1]; 5.0% bacitracin zinc in impregnated foam, day 6 after wounding): 95%
- % of wounds healed ([1]; 5.0% bacitracin zinc in impregnated foam, day 7 after wounding): 100%
- HT50 (time in days for 50% of wounds to be completely healed) ([1]; 5.0% bacitracin zinc): 3.9 days
- rate of wound re-epithelialization compared with both untreated and vehicle treated wounds ([1]; 7% bacitracin zinc): significantly greater
- rate of healing Compared with Untreated ([1]; 7.0% bacitracin zinc): +46%
- rate of healing Compared with Vehicle ([1]; 7.0% bacitracin zinc): 28%
- % of wounds healed ([1]; 7.0% bacitracin zinc in impregnated foam, day 2 after wounding): 0%
- % of wounds healed ([1]; 7.0% bacitracin zinc in impregnated foam, day 3 after wounding): 36%
- % of wounds healed ([1]; 7.0% bacitracin zinc in impregnated foam, day 4 after wounding): 70%
- % of wounds healed ([1]; 7.0% bacitracin zinc in impregnated foam, day 5 after wounding): 98%
- % of wounds healed ([1]; 7.0% bacitracin zinc in impregnated foam, day 6 after wounding): 100%
- % of wounds healed ([1]; 7.0% bacitracin zinc in impregnated foam, day 7 after wounding): 100%
- rate of healing Compared with Untreated ([1]; 7.0% bacitracin zinc, listed as bacitracin zinc): 46%
- HT50 (time in days for 50% of wounds to be completely healed) ([1]; 7.0% bacitracin zinc): 3.2 days
- rate of healing Compared with Untreated ([1]; 10.0% bacitracin zinc): +19%
- rate of healing Compared with Vehicle ([1]; 10.0% bacitracin zinc): -6%
- % of wounds healed ([1]; 10.0% bacitracin zinc in impregnated foam, day 2 after wounding): 0%
- % of wounds healed ([1]; 10.0% bacitracin zinc in impregnated foam, day 3 after wounding): 2%
- % of wounds healed ([1]; 10.0% bacitracin zinc in impregnated foam, day 4 after wounding): 33%
- % of wounds healed ([1]; 10.0% bacitracin zinc in impregnated foam, day 5 after wounding): 66%
- % of wounds healed ([1]; 10.0% bacitracin zinc in impregnated foam, day 6 after wounding): 92%
- % of wounds healed ([1]; 10.0% bacitracin zinc in impregnated foam, day 7 after wounding): 100%
- HT50 (time in days for 50% of wounds to be completely healed) ([1]; 10.0% bacitracin zinc): 4.8 days
- rate of healing Compared with Untreated ([1]; 20.0% bacitracin zinc): +19%
- rate of healing Compared with Vehicle ([1]; 20.0% bacitracin zinc): -6%
- % of wounds healed ([1]; 20.0% bacitracin zinc in impregnated foam, day 2 after wounding): 0%
- % of wounds healed ([1]; 20.0% bacitracin zinc in impregnated foam, day 3 after wounding): 0%
- % of wounds healed ([1]; 20.0% bacitracin zinc in impregnated foam, day 4 after wounding): 42%
- % of wounds healed ([1]; 20.0% bacitracin zinc in impregnated foam, day 5 after wounding): 58%
- % of wounds healed ([1]; 20.0% bacitracin zinc in impregnated foam, day 6 after wounding): 96%
- % of wounds healed ([1]; 20.0% bacitracin zinc in impregnated foam, day 7 after wounding): 100%
- HT50 (time in days for 50% of wounds to be completely healed) ([1]; 20.0% bacitracin zinc): 4.8 days
- effect on healing ([1]; levels higher than 5% to 8% bacitracin zinc): tend in inhibit rather than promote healing
- rate of wound re-epithelialization compared with ointment vehicle treated wounds ([1]; the other concentrations of bacitracin zinc (1%, 2.5%, 5%, 10%, 20%)): no significant difference
- HT50 (time in days for 50% of wounds to be completely healed) ([2]; bacitracin zinc as 7% ointment): 4.1 days
- rate of healing COMPARED WITH PU FILM ([2]; bacitracin zinc as 7% ointment): about 4%
- rate of healing Compared with Untreated ([2]; bacitracin zinc as 7% ointment): about 24%
- rate of healing COMPARED WITH PU FILM [2, 3]: +4%
- rate of healing Compared with Untreated [2, 3]: +24%
- % of wounds healed ([2]; day 2 after wounding, bacitracin zinc as 7% ointment): 0%
- % of wounds healed ([2]; day 3 after wounding, bacitracin zinc as 7% ointment): 19%
- % of wounds healed ([2]; day 4 after wounding, bacitracin zinc as 7% ointment): 42%
- % of wounds healed ([2]; day 5 after wounding, bacitracin zinc as 7% ointment): 77%
- % of wounds healed ([2]; day 6 after wounding, bacitracin zinc as 7% ointment): 92%
- % of wounds healed ([2]; day 7 after wounding, bacitracin zinc as 7% ointment): 100%
- further enhancement in the rate of healing over bacitracin zinc used alone ([2]; semipermeable occlusive film applied over the bacitracin zinc impregnated pad): 20%
